Assay results from patent EP1388013B1, “COMPOSITIONS AND METHODS FOR THE USE OF FIBRONECTIN FRAGMENTS IN THE DIAGNOSIS OF CANCER” (THE REGENTS OF THE UNIVERSITY OF MICHIGAN, priority 2001, dated 2002).
No end group written: not given here.

Columns and labels:
[1] = test system: normal human mammary epithelial cells; assay: SU-ECM invasion assay, normal mammary epithelial cells; assay type: cell-based; conditions: SU-ECM, serum containing environment; Figure 12
Method: Adult Strongylocentrotus purpuratus sea urchins were obtained from Pacific BioMarine, and their embryos were cultured to the early pluteus stage in artificial sea water at 15°C. SU-ECM were prepared from them by treatment with nonionic detergent and sterilized by dilution in the appropriate media.
[…] When appropriate, purified bovine plasma fibronectin (Sigma, St. Louis, Mo), purified 120 kDa chymotryptic fragment (Gibco BRL), PHSRN or PHSCN peptides (synthesized at the Biomedical Research Core Facilities of the University of Michigan), or GRGDSP or GRGESP peptides (Gibco BRL) were added to the resuspended cells prior to placement of the cells on SU-ECM. In each well of a plate used for an invasion assay, SU-ECM were placed in 0.5 ml of the appropriate medium, and 0.5ml of the resuspended cells dropped on their exterior surfaces. Invasion assays were incubated 1 to 16 hours prior to scoring. If some circumstances, invasion assays were fixed in phosphate-buffered saline (PBS) with 2% formaldehyde for 5 minutes at room temperature, then rinsed into PBS.
Invasion assays were coded and scored blindly by microscopic examination under phase contrast at 200- and 400-fold magnification. Each cell contacting an SU-ECM was scored for its position relative to the exterior or interior surfaces. A cell was judged to have invaded if it was located on an interior surface below the focal plane passing through the upper surface of the SU-ECM, but above the focal plane passing through its lower surface. The minimum viability of the cells in each assay was always ascertained at the time of assay by determining the fraction of spread, adherent cells on the bottom of each well scored.
An invasion frequency is defined as the fraction of cells in contact with basement membranes which were located in their interiors at the time of assay. […] Invasion frequencies were determined multiple times for each cell type assayed. For each type of cell assayed the mean and standard deviation of the invasion frequencies were calculated. […]

[2] = test system: normal, neonatal fibroblasts; assay: Invasion of fibronectin-depleted Matrigel by fibroblasts; assay type: cell-based; conditions: gelatin plus antibody panned Matrigel; Figure 2
Method: Anti-fibronectin antibody-coated wells: Wells of a 24-well plate were coated with an anti-fibronectin antibody. A mouse monoclonal antibody to human fibronectin was obtained from Oncogene Science (Catalog #CP13). Each well was incubated with 1 ml of antibody at a concentration of […] for 2 hours at room temperature. Each well was then incubated with a solution of 3% BSA in PBS for 2 hours at room temperature. Following the two incubation periods, the wells were thoroughly washed with PBS and stored at -20 °C until use.
Depleting Matrigel of Fibronectin: Matrigel was panned over eight gelatin-coated wells (as described above in Example 2) to remove most of the fibronectin and its fragments. Thereafter, the Matrigel was placed in the antibody-coated wells to remove any remaining fragments of fibronectin which contain the cell-binding domain but not the gelatin-binding domain. The Matrigel was incubated in an ice bucket on an orbital shaker at 4 °C for 2 hours. Once the Matrigel was depleted, it was collected in Eppendorf tubes. The fibronectin-depleted Matrigel was plated on a 48-well plate (150 µl/well), sterilized under a UV light for 10 minutes and incubated at 37 °C overnight. The Matrigel formed a gel and the following day, cells were added to the wells. […]

PHSRN [PHSRN]
induction of invasive behavior of human mammary epithelial cells [1]: induces the invasive behaviors
induction of fibroblast invasiveness on fibronectin-depleted Matrigel [2]: could be induced
